From patent US20160168140A1, “HETEROCYCLIC COMPOUNDS AS ANTIBIOTIC POTENTIATORS” (priority 2014, published 2016)
Where two headings read alike, the source gives them in different places. One block for each compound: values may come before it.

Columns and labels:
Assay type in all cases: cell-based
Serratia marcescens = experiment: Colistin MIC / MIC shift with compound at 10 μM (isolate panel, Table 19); settings: Serratia marcescens 6147, Colistin-R; for Colistin & Cmpd MIC shift / Colistin MIC with compound: compound at 10 μM
Staphylococcus aureus = experiment: as above; settings: for Colistin & Cmpd MIC shift / Colistin MIC with compound: compound at 10 μM
Klebsiella pneumoniae = experiment: MIC shift assay of antibiotics (broth microdilution); settings: for Colistin & Cmpd MIC shift / Colistin MIC with compound: compound at 10 μM
Procedure: (§1) Minimum inhibitory concentration (MIC) shift assays were performed to determine if the test compounds could alter the MIC of existing antibacterial drugs (e.g., ciprofloxacin and colistin) for E. coli, Acinetobacter baumannii, Klebsiella pneumoniae, Pseudomonas aeruginosa, and Enterobacter cloacae. The MIC shift assay is based on the standard broth microdilution MIC determination protocol of Wiegand et al, Nat Protoc. 3(2):163-75 (2008), with slight modifications that allow for the screening of up to seven test compounds in a single plate.
(§2) On the day before an assay, bacteria were grown overnight in cation-adjusted Mueller Hinton broth (CAMHB; Teknova, Hollister, Calif.) at 37° C. in an orbital shaker and sub-cultured at a 1:200 dilution the following morning. The cells were grown to OD600=0.5 to 0.8 and then diluted to OD600=0.01. From a serial dilution of each antibiotic at (50 μL of 2× concentrated stock solutions) several concentrations were added to the wells of a sterile, transparent round-bottom 96-well plate (Phenix Research Products, Candler, N.C.), and diluted cells (50 μL) were added to the plates for a starting OD600 of 0.005. Then, a test compound (2.5 μL) was added to each well to give a final concentration of 4 or 10 μM. A row of wells lacking test compound but containing the antibiotic was used to determine the MIC of that antibiotic alone. A column of wells lacking both antibiotic and test compound served as a growth control, and an additional column containing only CAMHB was included as a sterile blank control.
(§3) The plates were incubated for 18 to 20 h at 37° C. in an orbital shaker, and the cell density (OD600) was determined the following day in a microplate reader (PolarStar Optima, BMG Labtech). The MIC shift was determined by comparing the MIC of the antibiotic alone to the MIC of the antibiotic plus test compound.

Pseudomonas aeruginosa = experiment: as above; settings: for Colistin & Cmpd MIC shift / Colistin MIC with compound: compound at 10 μM
Procedure: as §1, §2, §3

E. coli = experiment: as above; settings: for Colistin MIC Shift: E. coli (SCR1), compd. concentration 4.0 μM, colistin MIC 0.5-1.0 μg/mL; for MIC, agent alone / Colistin & Cmpd MIC shift / Colistin MIC with compound: Escherichia coli ATCC 25922 (MMX 102), QC, Colistin-S; for Colistin & Cmpd MIC shift / Colistin MIC with compound: compound at 10 μM
Procedure: as §1, §2, §3

Proteus vulgaris = experiment: Colistin MIC / MIC shift with compound at 10 μM (isolate panel, Table 19); settings: Proteus vulgaris 6240, Colistin-R; for Colistin & Cmpd MIC shift / Colistin MIC with compound: compound at 10 μM
Burkholderia cepacia = experiment: as above; settings: Burkholderia cepacia 547, Colistin-R; for Colistin & Cmpd MIC shift / Colistin MIC with compound: compound at 10 μM
[1] = system: Acinetobacter baumannii (Ab23); experiment: MIC shift assay of antibiotics (broth microdilution); settings: for Colistin MIC Shift: A. baumannii (MDR Ab), compd. concentration 4.0 μM, colistin MIC 0.5-1.0 μg/mL; for Colistin & Cmpd MIC shift / Colistin MIC with compound: compound at 10 μM; for colistin MIC shift, Ab23 at (compd concentration): fold shift of colistin MIC, nc = no changeover or no shift
Summary of the method: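 Following a modified Wiegand broth microdilution protocol, colistin serial dilutions with or without test compound were set up in round-bottom 96-well plates and inoculated with A. baumannii cells to a starting OD600 of 0.005. Plates were shaken at 37° C. for 18 to 20 h and read at OD600. The fold shift was calculated from colistin MIC alone versus colistin MIC with test compound, with growth and medium-only blank controls.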

Providencia stuartii = experiment: Colistin MIC / MIC shift with compound at 10 μM (isolate panel, Table 19); settings: Providencia stuartii 6644, Colistin-R; for Colistin & Cmpd MIC shift / Colistin MIC with compound: compound at 10 μM
[2] = Staphylococcus aureus ATCC 43300 (MMX 5999), MRSA
[3] = Klebsiella pneumoniae 2237, Colistin-R
[4] = Klebsiella pneumoniae ATCC 13883 (MMX 214), Colistin-S
[5] = Pseudomonas aeruginosa 1582, Colistin-I
[6] = Pseudomonas aeruginosa 6977, Colistin-R
[7] = Pseudomonas aeruginosa ATCC 27853 (MMX 103), QC, Colistin-S
[8] = Acinetobacter baumannii ATCC 19606 (MMX 1630), Colistin-S
[9] = Acinetobacter baumannii Ab23, Colistin-R

- MIC, agent alone (Serratia marcescens): > 32 µg/mL
- Colistin & Cmpd MIC shift (Serratia marcescens): 256
- Colistin MIC with compound (Serratia marcescens): 0.25 µg/mL
- MIC, agent alone (Staphylococcus aureus): 1 µg/mL
- MIC, agent alone (Staphylococcus aureus; [2]): 1 µg/mL
- Colistin & Cmpd MIC shift (Staphylococcus aureus; [2]): 4267
- Colistin MIC with compound (Staphylococcus aureus; [2]): ≤ 0.015 µg/mL
- Colistin & Cmpd MIC shift (Staphylococcus aureus): 4267
- Colistin MIC with compound (Staphylococcus aureus): ≤ 0.015 µg/mL
- MIC, agent alone (Klebsiella pneumoniae; [3]): > 32 µg/mL
- Colistin & Cmpd MIC shift (Klebsiella pneumoniae; [3]): 128
- Colistin MIC with compound (Klebsiella pneumoniae; [3]): 0.25 µg/mL
- MIC, agent alone (Klebsiella pneumoniae; [4]): > 32 µg/mL
- Colistin & Cmpd MIC shift (Klebsiella pneumoniae; [4]): 8
- Colistin MIC with compound (Klebsiella pneumoniae; [4]): 0.015 µg/mL
- MIC, agent alone (Pseudomonas aeruginosa; [5]): > 32 µg/mL
- Colistin & Cmpd MIC shift (Pseudomonas aeruginosa; [5]): 2
- Colistin MIC with compound (Pseudomonas aeruginosa; [5]): 0.5 µg/mL
- MIC, agent alone (Pseudomonas aeruginosa; [6]): > 32 µg/mL
- Colistin & Cmpd MIC shift (Pseudomonas aeruginosa; [6]): 64
- Colistin MIC with compound (Pseudomonas aeruginosa; [6]): 1 µg/mL
- MIC, agent alone (Pseudomonas aeruginosa; [7]): > 32 µg/mL
- Colistin & Cmpd MIC shift (Pseudomonas aeruginosa; [7]): 4
- Colistin MIC with compound (Pseudomonas aeruginosa; [7]): 0.06 µg/mL
- Colistin MIC Shift (E. coli): 16x
- MIC, agent alone (E. coli): > 32 µg/mL
- Colistin & Cmpd MIC shift (E. coli): 8
- Colistin MIC with compound (E. coli): 0.015 µg/mL
- MIC, agent alone (Proteus vulgaris): > 32 µg/mL
- Colistin & Cmpd MIC shift (Proteus vulgaris): 4
- Colistin MIC with compound (Proteus vulgaris): > 16 µg/mL
- MIC, agent alone (Burkholderia cepacia): > 32 µg/mL
- Colistin & Cmpd MIC shift (Burkholderia cepacia): 4
- Colistin MIC with compound (Burkholderia cepacia): > 16 µg/mL
- Colistin MIC Shift [1]: 8x
- MIC, agent alone [1, 8]: 16 µg/mL
- Colistin & Cmpd MIC shift [1, 8]: 17
- Colistin MIC with compound [1, 8]: 0.015 µg/mL
- MIC, agent alone [1, 9]: 8 µg/mL
- Colistin & Cmpd MIC shift [1, 9]: 4267
- Colistin MIC with compound [1, 9]: 0.015 µg/mL
- colistin MIC shift, Ab23 at (compd concentration) ([1]; compound concentration 2 μM): 8-16x
- MIC, agent alone (Providencia stuartii): > 32 µg/mL
- Colistin & Cmpd MIC shift (Providencia stuartii): 4
- Colistin MIC with compound (Providencia stuartii): > 16 µg/mL
SMILES: Cc1cccc2c(NCCCN(C)C)nc(-c3cc(-c4ccccc4)cc(C(F)(F)F)c3)nc12 [compound 343]

SMILES: Clc1ccc2[nH]cc(-c3ccc(Cl)c(Cl)c3)c2c1 [compound 429]
- MIC, agent alone (Serratia marcescens): > 32 µg/mL
- Colistin & Cmpd MIC shift (Serratia marcescens): 256
- Colistin MIC with compound (Serratia marcescens): 0.25 µg/mL
- MIC, agent alone (Staphylococcus aureus): 2 µg/mL
- MIC, agent alone (Staphylococcus aureus; [2]): 2 µg/mL
- Colistin & Cmpd MIC shift (Staphylococcus aureus; [2]): 4267
- Colistin MIC with compound (Staphylococcus aureus; [2]): ≤ 0.015 µg/mL
- Colistin & Cmpd MIC shift (Staphylococcus aureus): 4267
- Colistin MIC with compound (Staphylococcus aureus): ≤ 0.015 µg/mL
- MIC, agent alone (Klebsiella pneumoniae; [3]): > 32 µg/mL
- Colistin & Cmpd MIC shift (Klebsiella pneumoniae; [3]): 128
- Colistin MIC with compound (Klebsiella pneumoniae; [3]): 0.25 µg/mL
- MIC, agent alone (Klebsiella pneumoniae; [4]): > 32 µg/mL
- Colistin & Cmpd MIC shift (Klebsiella pneumoniae; [4]): 4
- Colistin MIC with compound (Klebsiella pneumoniae; [4]): 0.03 µg/mL
- MIC, agent alone (Pseudomonas aeruginosa; [5]): > 32 µg/mL
- Colistin & Cmpd MIC shift (Pseudomonas aeruginosa; [5]): 16
- Colistin MIC with compound (Pseudomonas aeruginosa; [5]): 0.25 µg/mL
- MIC, agent alone (Pseudomonas aeruginosa; [6]): > 32 µg/mL
- Colistin & Cmpd MIC shift (Pseudomonas aeruginosa; [6]): 64
- Colistin MIC with compound (Pseudomonas aeruginosa; [6]): 1 µg/mL
- MIC, agent alone (Pseudomonas aeruginosa; [7]): > 32 µg/mL
- Colistin & Cmpd MIC shift (Pseudomonas aeruginosa; [7]): 2
- Colistin MIC with compound (Pseudomonas aeruginosa; [7]): 0.12 µg/mL
- Colistin MIC Shift (E. coli): 4x
- MIC, agent alone (E. coli): > 32 µg/mL
- Colistin & Cmpd MIC shift (E. coli): 8
- Colistin MIC with compound (E. coli): 0.015 µg/mL
- MIC, agent alone (Proteus vulgaris): > 32 µg/mL
- Colistin & Cmpd MIC shift (Proteus vulgaris): 1067
- Colistin MIC with compound (Proteus vulgaris): 0.06 µg/mL
- MIC, agent alone (Burkholderia cepacia): > 32 µg/mL
- Colistin & Cmpd MIC shift (Burkholderia cepacia): 4
- Colistin MIC with compound (Burkholderia cepacia): > 16 µg/mL
- Colistin MIC Shift [1]: 2x
- MIC, agent alone [1, 8]: > 32 µg/mL
- Colistin & Cmpd MIC shift [1, 8]: 8
- Colistin MIC with compound [1, 8]: 0.03 µg/mL
- MIC, agent alone [1, 9]: > 32 µg/mL
- Colistin & Cmpd MIC shift [1, 9]: 2133
- Colistin MIC with compound [1, 9]: 0.03 µg/mL
- MIC Shift of Ciprofloxacin ([1]; Compd. No. 429 concentration 8 μM, antibiotic Ciprofloxacin, A. baumannii (Ab23)): ≧32x
- MIC Shift of Levofloxacin ([1]; Compd. No. 429 concentration 8 μM, antibiotic Levofloxacin, A. baumannii (Ab23)): ≧64x
- MIC Shift of Meropenem ([1]; Compd. No. 429 concentration 8 μM, antibiotic Meropenem, A. baumannii (Ab23)): ≧16x
- MIC Shift of Tobramycin ([1]; Compd. No. 429 concentration 8 μM, antibiotic Tobramycin, A. baumannii (Ab23)): ≧16x
- colistin MIC shift, Ab23 at (compd concentration) ([1]; compound concentration 1 μM): 4x (1 μM);
- colistin MIC shift, Ab23 at (compd concentration) ([1]; compound concentration 2 μM): ≧16x (2μM)
- MIC, agent alone (Providencia stuartii): > 32 µg/mL
- Colistin & Cmpd MIC shift (Providencia stuartii): 4
- Colistin MIC with compound (Providencia stuartii): 16 µg/mL
